Experimental data taken from patent publication US4952580A, “Pesticidal polyhaloalkene derivatives” (priority 1988, dated 1990).
Like-named read-outs stand apart in the source and are kept apart here.

How the values were obtained:
[1] = test system: root-knot nematode (Meloidogyne incognita); assay: Initial Root-Knot Nematicidal Activity; format: in vivo; conditions: 336 h, read-out: Percent Control; for pest or weed control at 1.25 ppm: Table 2, Application Rate 1.25 ppm
Experimental: (§1) Compounds of this invention were tested as follows for nematicidal and anthelmintic activity as dust formulations (initial and residual activity) and as acetone/water formulations (systemic activity). The formulations are described above.
The activity against root-knot nematode (Meloidogyne incognita) was determined by incorporating the compound of the invention in nematode infested soil at rates in the range of 10 ppm to 0.078 ppm of compound. Several tomato or cucumber seedlings were planted in the nematode infested soil. Two weeks after planting the test pots were evaluated to ascertain the degree of galling (swelling) on the roots of the plants, indicating the control provided by the test chemical.
The results expressed as precent control (determined by knot index) are set forth as averages in Table 2 (appended). Knot index is a numerical designation assigned at evaluation, having the following meanings:
Percent control is related to knot index as follows:
When the Knot Index is between 0 and 1 it is further subdivided as follows to indicate how close the percent control is to 75% or 100%: […]

stunt nematode = assay: Stunt Nematode Test; format: in vivo
Experimental: as §1
The procedure was substantially the same as in the […] seedling, with subsequent inoculation of the soil with combined larvae and adult stunt nematodes. The samples were evaulated approximately four weeks after infestation. […] "Percent control" means the difference between average population counts between untreated and treated samples, divided by average population count of untreated sample, multiplied by 100.

root-knot nematode [2] = assay: Soil Mobility against root-knot nematode; format: in vivo, Meloidogyne incognita; conditions: 336 h
Experimental: as §1
The ability of nematicidal compounds of the invention to move through nematode-infested soil […] infested soil, and subsequently eluting the soil with 15 cm of water (equivalent to 15 cm of rainfall) into a series of two or more pots of untreated, but nematode-infested, soil. Specifically, the pots were 8 cm diameter plastic pots containing a 10 cm^3 layer of sand over a coarse grade filter paper disc. Sufficient soil was placed over the sand to fill the pots, and a second filter paper disc was placed over the soil. Each test compound-treated pot was nested over a series of two or more pots containing untreated, but nematode-infested soil, also containing sand filter paper discs as described for the treated soil pots. Fifteen cm of water was slowly dripped into the top pots and the pots were allowed to drain for 16-18 hours to remove excess water. The top filter of each pot was then removed and the pots were planted with a cucumber or tomato seedling. […] "Knot Index" and "Percent Control" are as defined in the initial root-knot nematode tests above.

root-knot nematode [3] = assay: Residual Root-Knot Nematicidal Activity; format: in vivo, Meloidogyne incognita; conditions: Table 3a, 5% dust, 5 ppm, read-out: Percent Control
Experimental: as §1
The ability of nematicidal compounds of the invention to control root-knot nematode infestations in soil over a period of time after treatment was evaluated. Dust formulations of test compound (5%) were incorporated into soil samples at test compound rates of 5 and 10 ppm. Subsequently, the treated soil samples were inoculated with nematode inoculum at weekly intervals, and Knot Index and Percent Control determined on seedlings planted in the soil samples. Specifically, soil treated with test compound was placed in 7.6 cm diameter fiber pots and stored in a greenhouse. At one, two and four weeks post-treatment, the appropriate number of pots was infested with root-knot nematode eggs and larvae. A cucumber or tomato seedling was planted in each pot and evaluated approximately two weeks after the soil infestation to obtain the test results reported in Tables 3 and 3a appended.

lesion nematode = assay: Lesion Nematode Test; format: in vivo; conditions: Table 5; rate 2.5 ppm; read-out: Percent Control
Experimental: as §1
The procedure was substantially the same as in the stunt nematode test described above except that pea seedlings were used. The results (Table 5 appended) show good control with many of the compounds at the application rates tested as compared with untreated samples (no control). "Percent Control" is defined as follows: [formula]

root-knot nematode [4] = assay: Systemic Activity (basipetal, foliar spray) against root-knot nematode; format: in vivo, Meloidogyne incognita; conditions: foliar, 336 h, Table 8, rate 2000 ppm, read-out: Percent Control
Experimental: as §1
Compounds of the invention were tested for basipetal systemic activity against the root-knot nematode. In this test, tomato plants are grown in 10.2 cm diameter fiber pots containing steam-pasteurized soil mix (50%, soil, 50% sand) until 4-6 true leaves appear. Three of the pots are then placed on a turntable in a spray hood and the plants sprayed with 50 ml of water/acetone solution containing the test compound. The soil surface is covered during the spraying to prevent spraying of the soil. After treatment, the potted plants are placed in a lighted drying chamber. The plants are then grown in a growth chamber at 25° C. for three days and inoculated with a standard nematode culture by incorporating the inoculum into the top cm of soil in the pots. The plants are returned to the growth chamber for about two weeks at which time the pots are allowed to dry until the plants begin to wilt. The roots are shaken free of soil and the degree of galling (swelling) noted as compared to galling of untreated control plants. The results are expressed as Knot Index and Percent Control as defined in the initial root-knot nematode activity tests reported above in Table 2.

Caenorhabditis elegans = assay: C. Elegans Nematode Screening Test and Evaluation (in-vitro); conditions: Caenorhabditis elegans
Experimental: This in-vitro test using the free-living nematode Caenorhabditis elegans, is a modification of the assay developed by Simpkin and Coles, J. Chem. Tech. […] One milliliter of a test medium consisting of 5 mg ampicillin, 10,000 units of mycostatin and 10 ml of a dense suspension of Escherichia coli per 100 ml of a buffer solution, was pipetted into each well of a 24-well microtiter plate. The candidate nematicide, suspended at the appropriate concentration in dimethylsulfoxide, was added to the wells in […] volumes. Each rate of application was replicated two to three times. After thorough mixing of the contents of each well, 50 to 100 μl of a nematode suspension in a buffer was added so that each well received 10-15 nematodes. After the nematodes were added, the microtiter plates were incubated at 20° C. for 5-6 days.
The effect of the candidate nematicide on the survival and the reproduction of C. elegans was then evaluated by comparison of the level of population developed in the treated wells with that in untreated wells. Specific effects on population development, such as reduced egg hatch or molting disruption, were noted if they were evident.

[5] = Table 2, Application Rate 0.312 ppm
[6] = Table 2, Application Rate 0.625 ppm
[7] = Table 2, Application Rate 2.5 ppm
[8] = 672 h, Table 4a; rate 5 ppm; read-out: Percent Control
[9] = Table 7a, 5% dust, 5 ppm, BOTTOM container, read-out: Percent Control
[10] = Table 7a, 5% dust, 5 ppm, MIDDLE container, read-out: Percent Control
[11] = Table 7a, 5% dust, 5 ppm, TOP container, read-out: Percent Control
[12] = 168 h, inoculation 1 week post-treatment
[13] = 336 h, inoculation 2 weeks post-treatment
[14] = 672 h, inoculation 4 weeks post-treatment
[15] = read-out: Percent Control, Table 7a, 5% dust, 5 ppm, BOTTOM container
[16] = 672 h; Table 4a; rate 5 ppm; read-out: Percent Control

| SMILES | pest or weed control at 0.312 ppm [1, 5] | pest or weed control at 0.625 ppm [1, 6] | pest or weed control at 1.25 ppm [1] | pest or weed control at 2.5 ppm [1, 7] | pest or weed control at 5 ppm (stunt nematode; [8]) | pest or weed control at 5 ppm (root-knot nematode [2]; [9]) | pest or weed control at 5 ppm (root-knot nematode [2]; [10]) | pest or weed control at 5 ppm (root-knot nematode [2]; [11]) | pest or weed control at 5 ppm (root-knot nematode [3]; [12]) | pest or weed control at 5 ppm (root-knot nematode [3]; [13]) | pest or weed control at 5 ppm (root-knot nematode [3]; [14]) | pest or weed control at 2.5 ppm (lesion nematode) | further results |
| --- | --- | --- | --- | --- | --- | --- | --- | --- | --- | --- | --- | --- | --- |
| FC(F)=C(F)CCN=C=S [Compound 6, (3,4,4-trifluoro-3-butenyl) isothiocyanate] |  |  |  |  |  |  |  |  |  |  |  |  | pest or weed control at 2.5 ppm [1]: 38%; pest or weed control at 5 ppm [1]: 78%; pest or weed control at 10 ppm [1]: 100%; pest or weed control at 5 ppm (stunt nematode; 672 h, Table 4; rate 5 ppm; read-out: Percent Control): 51% |
| FC(F)=C(F)CCSc1nnc(-c2ccc(Br)cc2)o1 [Compound 49, 2-(4-bromophenyl)-5-(3,4,4-trifluoro-3-butenylthio)-1,3,4-oxadiazole] | 98% | 100% | 100% | 100% | 58% | 8% | 71% | 99% |  |  |  |  |  |
| N#CCCSc1nnc(SCCC(F)=C(F)F)s1 [Compound 28, 2-(2-cyanoethylthio)-5-(3,4,4-trifluoro-3-butenylthio)-1,3,4-thiadiazole] | 81% | 86% | 98% | 100% | 38% | 68% | 83% | 68% | 100% | 100% | 8% | 45% |  |
| CC(C)Sc1nnc(SCCC(F)=C(F)F)s1 [Compound 30, 2-(1-methylethylthio)-5-(3,4,4-trifluoro-3-butenylthio)-1,3,4-thiadiazole] | 97% | 99% | 99% | 100% | 66% |  | 100% | 99% | 98% | 97% | 83% | 75% | pest or weed control at 5 ppm (root-knot nematode [2]; [15]): 17% |
| FC(F)=C(F)CCSc1nnc(-c2ccccc2)o1 [Compound 16, 2-phenyl-5-(3,4,4-trifluoro-3-butenylthio)-1,3,4-oxadiazole] |  | 25% | 44% |  |  |  |  |  |  |  |  |  | pest or weed control at 0.313 ppm ([1]; Table 2, Application Rate 0.313 ppm): 0%; pest or weed control at 2.5 ppm [1]: 95%; pest or weed control at 2000 ppm (root-knot nematode [4]): 67% |
| FC(F)=C(F)CCSc1nnc(CCc2ccccc2)o1 [Compound 47, 2-(2-phenylethyl)-5-(3,4,4-trifluoro-3-butenylthio)-1,3,4-oxadiazole] |  |  | 96% | 100% | 35% | 58% | 96% | 98% | 96% | 25% | 0% | 69% | pest or weed control at 0.312 ppm [1]: 95%; pest or weed control at 0.625 ppm [1]: 95% |
| CCCSc1nnc(SCCC(F)=C(F)F)s1 [Compound 29, 2-propylthio-5-(3,4,4-trifluoro-3-butenylthio)-1,3,4-thiadiazole] |  | 99% | 99% | 99% | 56% | 50% | 81% | 98% | 100% | 98% | 81% | 68% | pest or weed control at 0.312 ppm [1]: 95% |
| FC(F)=C(F)CCSc1nnc(Cc2ccc(Cl)cc2)o1 [Compound 43, 2-(4-chlorophenylmethyl)-5-(3,4,4-trifluoro-3-butenylthio)-1,3,4-oxadiazole] | 78% |  | 56% | 97% | 81% | 81% | 97% | 99% | 100% | 100% | 100% | 93% | pest or weed control at 0.078 ppm ([1]; Table 2, Application Rate 0.078 ppm): 13%; pest or weed control at 0.156 ppm ([1]; Table 2, Application Rate 0.156 ppm): 38%; pest or weed control at 0.5 ppm ([1]; Table 2, Application Rate .5 ppm): 99%; pest or weed control at 5 ppm (stunt nematode; [16]): 62%; inhibition at 5 ppm (Caenorhabditis elegans; Table 9 screen, 5 ppm, read-out: Percent Inhibition of Reproduction): 100%; mortality at 5 ppm (Caenorhabditis elegans; Table 9 screen, 5 ppm, read-out: Percent Mortality): 25%; mortality at 5 ppm (Caenorhabditis elegans; Table 10 evaluation, 5 ppm, read-out: Percent Mortality): 83%; inhibition at 1.25 ppm (Caenorhabditis elegans; Table 10 evaluation, 1.25 ppm, read-out: Percent Inhibition of Reproduction): 42%; mortality at 1.25 ppm (Caenorhabditis elegans; Table 10 evaluation, 1.25 ppm, read-out: Percent Mortality): 0%; inhibition at 2.5 ppm (Caenorhabditis elegans; Table 10 evaluation, 2.5 ppm, read-out: Percent Inhibition of Reproduction): 100%; mortality at 2.5 ppm (Caenorhabditis elegans; Table 10 evaluation, 2.5 ppm, read-out: Percent Mortality): 67% |
| FC(F)=C(F)CCSc1nnc(-c2ccc(F)cc2)o1 [Compound 50, 2-(4-fluorophenyl)-5-(3,4,4-trifluoro-3-butenylthio)-1,3,4-oxadiazole] | 78% | 99% | 99% | 100% |  |  | 71% | 98% |  |  |  |  | pest or weed control at 5 ppm (stunt nematode; [16]): 53%; pest or weed control at 5 ppm (root-knot nematode [2]; [15]): 33% |
